In brackets after ≈: the same amount, converted by molar mass. Read-outs that look alike come from different tables or passages of the source.
Assays:
[1] = tested on: HSV-2 (strain MS); test: HSV-β-Gal assay: transient expression of beta galactosidase in transfected HeLa cells superinfected with HSV-2 (in-vitro anti-HSV activity); assay type: cell-based
Procedure: HeLa and Vero cell cultures were maintained in Eagles Minimal Essential Medium which was supplemented with glutamine, penecillin, streptomycin and 10% fetal calf serum (10% EMEM). Stock cultures of HSV-2 (strain MS available from ATCC VR-540) were grown in and harvested from Vero cells. Viral stocks were titered in Vero cells according to established procedures.
Plasmid pON 245^ori- contains the promoter of the HSV-1 thymidine kinase (tk) gene located immediately 5' of the E. coli lac Z gene. In this arrangement, the tk promoter controls transcription from the bacterial gene in transient expression assays. Additionally, an SV40 polyadenylation signal is present at the 3' end of the lac Z gene to allow for the efficient translation of the mRNA in eucaryotic cells. The expression of beta galactosidase in a transient assay using pON 245^ori- is dependent upon superinfection of the transfected cells with HSV. […] For example, see U.S. application Ser. No. 07/435,491 filed Sep. 5, 1989, the disclosure of which is incorporated herein by reference thereto.
HeLa cells were seeded into 96 well microtiter plates and allowed to grow to 80% confluency (approximately 35,000 cells/well). One half microgram of plasmid pON 245^ori- DNA was introduced into the cells of each well by the […] precipitation technique (Graham and Van der Eb, 1973). Four to six hours later, the cells were rinsed with Hank's Balanced Salt Soluton (HBSS), overlaid with 10% EMEM and incubated at 37° C. At 24 hrs post-trasnfection, cells were rinsed, overlaid with 10% EMEM again and re-incubated at 37° C. At 48 hrs post-transfection, cells were rinsed and overlaid with either EMEM containing 2% fetal calf serum (2% EMEM, 2% EMEM containing HSV-2 (strain MS, Multiplicity of Infection [moi]=5 pfu/cell) or 2% EMEM containing HSV-2 and the appropriate concentration of the compound to be tested. Twenty-four hrs later, the cells were harvested and assayed to beta galactosidase activity as described below.
All determinations of beta galactosidase activity were performed in 96 well microtiter plates. The intracellular level of beta galactosidase activity in each well was determined from cell lysates of the monolayer cultures. Aliquots were assayed by incubation in the presence of beta galactosidase substrate, 4-methylumbelliferyl-β-D-galactoside (MUG, 125 ug/ml, Sigma), for 2 hrs. The generation of fluorescent product was quantified on a Microfluor microfluorimeter (Dynatech) after addition of 0.1M glycine, pH 10.3 (Spaete and Mocarski, 1985). The inhibitory activity of a compound was plotted versus the concentration and an IC50 value (the concentration of compound required to reduce beta glactosidase expression by 50%) was obtained for each compound tested.

[2] = Compound toxicity assay: ^3 H-LEU HeLa cell translation (cytotoxicity); assay type: cell-based; conditions: human; HeLa cells, translational activity, overnight incubation at 37° C.; read-out: Cytotoxicity, ^3 H-LEU Assay IC50
Procedure: HeLa cells were treated with inhibitory compound for 24 hrs, after which levels of translational activity were assayed.
For assay of translational activity, HeLa cultures were grown to 80% confluency in 96 well microtiter plates, treated with appropriate concentrations of compound in 2% EMEM during an overnight incubation at 37° C., then rinsed with HBSS and overlaid with […] of 2% EMEM containing 8 uCi of tritiated leucine (^3 H-LEU, 141 Cu/mMol, Amersham Corp., Arlington Heights, Ill.). After a 1 hr incubation at 36.5° C., the cells were rinsed twice with phosphate buffered saline (PBS) and lysed in 400 ul/well of 1×PBS, 0.5% sodium dodecyl sulphate (SDS). After a 10 min incubation at 36.5° C., the contents of the well were transferred to a well in a Millititer HA microfiltration plate (Millipore Corp., Bedford, Mass.). The TCA insoluble proteins were precipitated onto the filter disc by a 10 min fixation with 5% TCA, followed by filtration over vacuum and three 10 minute rinses with 95% ethanol. The filters were dried at room temperature, cut from the milltitier plate and transferred to scintillation vials. TCA precipitable counts were assayed in 5 ml of Scintisol (Isolab, Akron, Ohio). The inhibitory activity of a compound was plotted versus the concentration and an IC50 value (that concentration of the compound required to decrease cellular translational activity by 50%) was derived for each compound.

[3] = tested on: spontaneously hypertensive rats (SHR); test: SHR analysis: fall in mean blood pressure in conscious spontaneously hypertensive rats; assay type: in vivo, rat (SHR males); conditions: for SHR MBP: 25 mpk (p.o.), Table IV
Procedure: The ability of the antihypertensive compounds of the present invention to lower blood pressure can be assessed in vivo in conscious spontaneously hypertensive rats (SHR). SHR males are purchased from Taconic Farms, Germantown, N.Y. and are approximately 16-18 weeks old when anesthetized with ether. The caudal (ventral tail) artery is cannulated with polyethylene tubing (PE50) and blood pressure and heart rate are recorded as described by Baum, T. et al, J. Cardiovasc. Pharmacol. Vol. 5, pp. 665-667, (1983). Rats are placed into plastic cylindrical cages where they rapidly recover consciousness. Blood pressure and heart rate are allowed to stabilize for approximately 90 minutes prior to compound administration. Compounds are administered orally as solutions or suspensions in 0.4% aqueous methylcellulose vehicle via a feeding needle. The compound or 0.4% aqueous methylcellulose vehicle are given in a volume of 4 ml/kg to SHRs that had been fasted overnight. Activity is expressed as the fall in mean blood pressure (MBP) in millimeters of mercury (mm Hg). Compound-induced changes are compared with the changes in an appropriate placebo group.

[4] = tested on: HSV-2; conditions: cited from earlier work
[5] = tested on: HSV; conditions: cited from earlier work
[6] = tested on: HSV-1; conditions: cited from earlier work
[7] = tested on: herpes virus; conditions: cited from earlier work
[8] = biological target: T1, cGMP phosphodiesterase (cGMP-PDE) (Bos taurus, UniProt Q28156); test: Phosphodiesterase inhibition in vitro (cGMP-PDE); assay type: biochemical; conditions: bovine lung enzyme, 1 μM ^3 H-cGMP, pH 7.5, 25 minutes, room temperature
T1 construct: is a homogeneous enzyme obtained from bovine lung and purified by ion-exchange chromatography, gel filtration, and sucrose gradient centrifugation; from tissue; host or cells: bovine lung

[9] = tested on: herpes virus; conditions: added to lidocaine or lidocaine hydrochloride; cited from earlier work
[10] = Human alphaherpesvirus 2, HeLa cells, HSV-2 strain MS, moi 5 pfu/cell, 24 hrs, read-out: Anti-HSV Activity, HSV-β-Gal Assay IC50
[11] = Human alphaherpesvirus 2, *Repeat, HeLa cells, HSV-2 strain MS, moi 5 pfu/cell, 24 hrs, read-out: Anti-HSV Activity, HSV-β-Gal Assay IC50 (repeat)

| IC50 [1, 10] [µg/mL] | IC50 [8] [µM] | SMILES | CC50 [2] [µg/mL] | other results |
| --- | --- | --- | --- | --- |
|  | 0.6 | CCCCCCn1c(OC)cc(=O)c2cc(C)ccc21 [Compound 16] |  |  |
|  | > 100 | COC(=O)Cn1c(OC)cc(=O)c2ccccc21 [R H, R1 --CH3, R2 --, R3 --CH2 CO2 CH3] |  |  |
| 4 (≈ 10.2 µM) |  | COc1c(I)c(=O)c2ccccc2n1Cc1ccccc1 [Compound 13] | 27 (≈ 69 µM) |  |
| 20 (≈ 75.4 µM) | 2.6 | COc1cc(=O)c2ccccc2n1Cc1ccccc1 [Compound 4, 1-Benzyl-2-Methoxy-4(1H)-Quinolinone] | 45 (≈ 170 µM) |  |
|  | > 100 | COc1ccc2c(c1)c(=O)cc(OC)n2Cc1ccccc1 [R H, R1 --CH3, R2 6-OCH3, R3 --CH2 Ph] |  |  |
| > 25 |  | Cn1c(OCCO)cc(=O)c2ccccc21 [Compound 14] |  |  |
| 9 (≈ 32.9 µM) | 5.9 | CCCCCCCn1c(OC)cc(=O)c2ccccc21 [Compound 5, 1-Heptyl-2-Methoxy-4(1H)-Quinolinone] | 45 (≈ 165 µM) |  |
| 5 (≈ 17.3 µM) |  | CCCCCCn1c(OC)cc(=O)c2cccc(OC)c21 [Compound 7, 1-Hexyl-2,8-Dimethoxy-4(1H)-Quinolinone] | 21 (≈ 72.6 µM) | IC50 [1, 11]: 8 µg/mL (≈ 27.6 µM) |
| > 25 |  | CN(C)CCOc1cc(=O)c2ccccc2n1C [Compound 1, 1-Methyl-2-(2-Dimethylaminoethoxy)-4(1H)-Quinolinone] |  |  |
|  | > 100 | COc1cc(=O)c2cc(OCc3ccccc3)ccc2n1Cc1ccccc1 [R H, R1 --CH3, R2 6-OCH2 Ph, R3 --CH2 Ph] |  |  |
|  | > 100 | COc1cc(=O)c2ccc(Cl)cc2n1C [R H, R1 --CH3, R2 7-Cl, R3 --CH3] |  | SHR MBP [3]: -7 mm of Hg |
| 13 (≈ 46.5 µM) | 6 | COc1cc(=O)c2cc(C)ccc2n1Cc1ccccc1 [Compound 3, 1-Benzyl-2-Methoxy-6-Methyl-4(1H)-Quinolinone] | 85 (≈ 304 µM) |  |

Second part, the molecule before the results:

| SMILES | IC50 [1, 10] [µg/mL] | IC50 [8] [µM] | CC50 [2] [µg/mL] | other results |
| --- | --- | --- | --- | --- |
| CCOC(=O)c1c(OC)n(Cc2ccccc2)c2ccc(C)cc2c1=O [Compound 9, 1-Benzyl-2-Methoxy-3-Carbethoxy-6-Methyl-4-(1H)-Quinolinone] | 3 (≈ 8.54 µM) |  | 79 (≈ 225 µM) |  |
| COc1cc(=O)c2cccc(C)c2n1C [Compound 15] |  |  |  | SHR MBP (fall in mean blood pressure) ([3]; 25 mpk (P.O.), Table III): 12 mm of Hg |
| CCN(CC)CC(=O)Nc1c(C)cccc1C [lidocaine, 2-(diethylamino)-N-(2,6-dimethylphenyl)acetamide] |  |  |  | antiviral agent in cell culture against HSV-2 [4]: antiviral agent; treatment of HSV oral and genital lesions in humans [5]: particularly effective; antiviral agent in cell culture against HSV-1 [6]: antiviral agent; treatment of herpes virus infections of mammals [7]: able to treat herpes virus infections of mammals |
| CC(C)(CO)[C@@H](O)C(=O)NCCCO [dexpanthenol] |  |  |  | enhancement of antiviral activity on addition to lidocaine or lidocaine hydrochloride [9]: significantly enhances the antiviral activity |
| COc1c(Cl)c(=O)c2cc(C)ccc2n1Cc1ccccc1 [Compound 12] | 4 (≈ 12.7 µM) |  | 12 (≈ 38.2 µM) |  |
| CC(C)(CO)[C@@H](O)C(=O)NCCC(=O)O [pantothenic acid] |  |  |  | enhancement of antiviral activity on addition to lidocaine or lidocaine hydrochloride [9]: significantly enhances the antiviral activity |
| CCCCCCn1c(OC)c(C(=O)OCC)c(=O)c2ccccc21 [Compound 17] |  | 14 |  |  |
| CCCCCCn1c(OC)cc(=O)c2cccc(C)c21 [Compound 6, 1-Hexyl-2-Methoxy-8-Methyl-4(1H)-Quinolinone] |  | > 100 | 27 (≈ 98.8 µM) | IC50 ([1]; Human alphaherpesvirus 2, HeLa, 24 h, read-out: Anti-HSV Activity, HSV-β-Gal Assay IC50): 3 µg/mL (≈ 11 µM); IC50 [1, 11]: 6 µg/mL (≈ 21.9 µM); SHR MBP [3]: -1 mm of Hg |
| COc1cc(=O)c2ccc(OC)c(C)c2o1 [Compound 10, 2,7-Dimethoxy-8-Methyl-1,4-Benzopyrone] | 18 (≈ 81.7 µM) | 13 | > 100 |  |
| COc1cc(=O)c2cc(C)c(C)cc2n1Cc1ccc(O)cc1 [Compound 11] | 10 (≈ 32.3 µM) |  |  |  |
| COc1cc(=O)c2cc(C)c(C)cc2n1Cc1ccc(O[Si](C)(C)C(C)(C)C)cc1 [Compound 8, 1-[4-(t-Butyl-Dimethylsilyloxy)] Benzyl-2-Methoxy-6,7-Dimethyl-4-(1H)-Quinolinone] | 2 (≈ 4.72 µM) |  | 25 (≈ 59 µM) |  |

From patent US5175151A, “Antiviral compounds and antihypertensive compounds” (Schering Corporation, priority 1992, dated 1992)
